Measurements: US12544371B2, “Methods and compositions for treating acute lung injury and acute respiratory distress syndrome” (CalciMedica, Inc., priority 2020, dated 2026)
“Also recorded” adds a separate entry of the source. Like-named read-outs stand apart in the source and are kept apart here.

Assays:
[1] = Long-term extension study of SAD and MAD subjects; type: in vivo, human
Excerpt: Subjects in Groups 4 and 5 of the SAD study and Groups 1 and 2 of the MAD study who received Compound 1 were followed for 1 year in a long-term extension study to assess for adverse events and serious adverse events. In addition, PK levels were drawn in all 4 groups on Day 270 to further characterize the terminal phase and the prolonged period of residual drug level.

[2] = system: IL-2 release by human PBMCs; assay: IL-2 release by human PBMCs, isolated cell assay; type: cell-based; conditions: PBMC, SEM (n), read-out: Compound 1 IC50, IL-2 release by human PBMCs
Excerpt: (§1) CRAC channels may play a proximal role in a calcium-calcineurin pathway leading to cytokine release in immune cells.

[3] = system: IL-1β released from human PBMCs; assay: Cytokine released from human PBMCs: IL-1β; type: cell-based
Excerpt: as §1

[4] = system: IL-6 released from human PBMCs; assay: Cytokine released from human PBMCs: IL-6; type: cell-based
Excerpt: as §1

[5] = Mouse TLCS-induced and FAEE-induced pancreatitis models; type: in vivo
Excerpt: Potential efficacy of Compound 1 in treating acute lung injury was established in three diverse in vivo models of AP that cause both pancreatic damage and lung inflammation (TLCS-induced, FAEE-induced, and caerulein-induced acute pancreatitis models).

[6] = Repeat-dose toxicity study in monkeys; conditions: in vivo, monkey
Experimental: Hemolysis testing concluded that Compound 1 was compatible with human plasma and non-hemolytic in human blood.
Plasma concentrations of compound rise steadily during the 4-hour infusion, with Tmax achieved at the end of infusion (4 hours). After the end of infusion, there is a rapid and prominent distribution phase followed by a prolonged period of residual drug levels. The terminal elimination phase has not yet been fully characterized as it appears to be much longer than was anticipated based on pre-clinical PK data in mouse, rat, dog and monkey. Plasma concentrations during the terminal phase are approximately 5% of Cmax values and, as indicated above, to date there have been no clinically significant AEs reported during this phase. Plasma exposures, defined by AUC0-24 h, appear to be dose-proportional and reached a maximum of 6710 ng*h/mL in Group 5, which is 4.3-fold below the mean AUC24 h in monkey at the NOAEL (29,000 ng*hr/mL).

[7] = Cardiovascular safety in telemetered cynomolgus monkey; type: in vivo
Excerpt: (§2) Compound 1 is a non-limiting example of a composition described herein that inhibits calcium release-activated calcium (CRAC) channels).

[8] = Repeat-dose toxicity study in rats; type: in vivo; conditions: rat
[9] = system: IL-2 release by human CD4+ T cells; assay: IL-2 release by human CD4+ T cells, isolated cell assay; type: cell-based; conditions: SEM (n), read-out: Compound 1 IC50, IL-2 release by human CD4+ T cells
Excerpt: as §1

[10] = system: IL-2 released from human PBMCs; assay: Cytokine released from human PBMCs: IL-2; type: cell-based
Excerpt: as §1

[11] = system: IFNγ released from human PBMCs; assay: Cytokine released from human PBMCs: IFNγ; type: cell-based
Excerpt: as §1

[12] = PD/PK study in patients with acute pancreatitis (Compound 1 Test 202); type: in vivo, human
Experimental: (§3) In Compound 1 Test 202, a pharmacodynamic and pharmacokinetic study of Compound 1 in patients with acute pancreatitis, patients with AP (regardless of the presence of SIRS and/or hypoxemia) were administered a single IV infusion of 2.08 mg/kg of an injectable emulsion of Compound 1 and blood, plasma and serum were collected for analysis. It was planned to initially enroll 5 patients and then to enroll an additional 4 patients as needed. Ultimately, 7 patients were screened for the study, and all 7 enrolled in and completed the study. On Days 1 and 2, blood and plasma samples for PD and PK analyses, respectively, were obtained 30 minutes after completing the administration of Compound 1 and 24 hours from the start of the administration of Compound 1. In patients hospitalized at Day 5 and 10, blood and plasma samples were obtained; if discharged earlier, samples were obtained at the time of discharge. After discharge, patients returned to the hospital on Day 30 to provide final blood and plasma samples.

[13] = Safety pharmacology studies in rats; type: in vivo
Excerpt: as §2

[14] = system: cytokine release from human lymphocytes; assay: In vitro studies of cytokine release from human lymphocytes; type: cell-based
[15] = system: human peripheral blood lymphocytes; assay: In vitro micronucleus assay; type: cell-based
[16] = Rat model of acute pancreatitis (caerulein-induced), IV infusion; type: in vivo
[17] = system: CRAC channel-dependent stimulated IL-2 secretion; assay: Ex vivo whole blood PD assay of CRAC channel-dependent IL-2 release (Test 202); type: in vivo, human
Experimental: as §3
An intravenous formulation of a CRAC inhibitor comprising Compound 1 allowed rapid delivery and onset of action when a single 2.08 mg/kg dose was given in human patients with acute pancreatitis (AP). Ex vivo whole blood pharmacodynamic (PD) assays of CRAC channel-dependent IL-2 release were performed.

[18] = system: IL-10 released from human PBMCs; assay: Cytokine released from human PBMCs: IL-10; type: cell-based; conditions: PBMC, mean of replicates
Excerpt: as §1

Cc1cccc(F)c1C(=O)Nc1cnc(-c2cc3c(cc2Cl)OC(F)(F)O3)cn1 [Compound 1, N-(5-(6-Chloro-2,2-difluorobenzo[d][1,3]dioxol-5-yl)pyrazin-2-yl)-2-fluoro-6-methylbenzamide]
number of mild AEs in the extension study ([1]; 365 days): 1 | serious adverse events and adverse events rated moderate or severe, long-term follow-up ([1]; healthy subjects followed for 365 days): safe and no serious adverse events and no adverse events rated moderate or severe in intensity and no SAEs or AEs rated moderate or severe in intensity | IC50 [2]: 10 ± 0.4 nM | IC50 ([3]; Homo sapiens, PBMC, mean of replicates, read-out: Mean IC50, IL-1β released from human PBMCs): 240 nM | IC50 ([3]; Homo sapiens, PBMC, single replicates, read-out: Replicate IC50 values, IL-1β released from human PBMCs): 264 nM | IC50 ([3]; single replicates, read-out: Replicate IC50 values, IL-1β released from human PBMCs): 217 nM | IC50 ([4]; Homo sapiens, PBMC, mean of replicates, read-out: Mean IC50, IL-6 released from human PBMCs): 135 nM | IC50 ([4]; Homo sapiens, PBMC, single replicates, read-out: Replicate IC50 values, IL-6 released from human PBMCs): 145 nM | IC50 ([4]; single replicates, read-out: Replicate IC50 values, IL-6 released from human PBMCs): 126 nM | effect of timing of administration on minimizing pancreatic injury ([5]; administered early in the course of disease, later administration retains effectiveness): may be more effective | lung myeloperoxidase; pancreas trypsin activity, myeloperoxidase activity and histopathological indices ([5]; mouse TLCS-induced and FAEE-induced pancreatitis, two IP doses): markedly reduced | AUC(0-t) ([6]; NOAEL 3 mg/kg/day, read-out: mean AUC24 h in monkey at the NOAEL): 29000 ng·h/mL | NOAEL ([6]; repeat-dose, monkeys, read-out: no observable adverse effect level (NOAEL)): 3 mg/kg/day | cardiovascular data at lower doses ([7]; 1, 3 and 10 mg/kg, also seen in placebo treated animals): transient, non-dose-related, slight-to-moderate increases in systolic/diastolic arterial blood pressures and negative chronotropic effects (mild and non-adverse) | clinical and cardiovascular effects ([7]; single telemetered cynomolgus monkey, 25 mg/kg IV): Dose-limiting adverse clinical and cardiovascular effects | NOAEL ([8]; in vivo, repeat-dose, rats, read-out: no observable adverse effect level (NOAEL)): 25 mg/kg/day | local irritation at the injection site ([8]; repeat-dose toxicity study): no evidence of compound-related or vehicle-related local irritation | IC50 [9]: 4 ± 0.5 nM | IC50 ([10]; Homo sapiens, PBMC, mean of replicates, read-out: Mean IC50, IL-2 released from human PBMCs): 59 nM | IC50 ([10]; Homo sapiens, PBMC, single replicates, read-out: Replicate IC50 values, IL-2 released from human PBMCs): 71 nM | IC50 ([10]; single replicates, read-out: Replicate IC50 values, IL-2 released from human PBMCs): 47 nM | IC50 ([11]; Homo sapiens, PBMC, mean of replicates, read-out: Mean IC50, IFNγ released from human PBMCs): 138 nM | IC50 ([11]; Homo sapiens, PBMC, single replicates, read-out: Replicate IC50 values, IFNγ released from human PBMCs): 175 nM | IC50 ([11]; single replicates, read-out: Replicate IC50 values, IFNγ released from human PBMCs): 102 nM | patients with moderate TEAEs ([12]; 1 of 7 patients): 14% | patients with severe TEAEs ([12]; 2 of 7 patients, also SAEs, not considered drug related): 29% | number of TEAEs ([12]; 7 patients, single 2.08 mg/kg): 7 TEAEs | patients who experienced TEAEs ([12]; 7 patients, single IV infusion of 2.08 mg/kg): 3 patients | Discharge IL-6 levels, patients with IL-6 ≥ 1000 pg/mL ([12]; PK/PD Single Dose, admission 0): 0 | Discharge IL-6 levels, patients with 150 pg/mL ≤ IL-6 < 1000 pg/mL ([12]; PK/PD Single Dose, admission 1): 0 | TEAEs with causality Unlikely ([12]; of the 7 TEAEs): 2 TEAEs | TEAEs with causality Unrelated ([12]; of the 7 TEAEs): 5 TEAEs | mild TEAEs ([12]; of the 7 TEAEs): 3 TEAEs | moderate TEAEs ([12]; of the 7 TEAEs): 2 TEAEs | severe TEAEs (also SAEs) ([12]; of the 7 TEAEs): 2 TEAEs | adverse effects on central nervous or respiratory systems [13]: no adverse effects | inhibition of cytokine release from human lymphocytes [14]: inhibits release of multiple cytokines; also recorded: potent, concentration-dependent inhibition | micronucleus assay result [15]: weakly positive/equivocal | lung myeloperoxidase activity (neutrophil infiltration) [16]: decrease | mRNA levels of the cytokines TNFα and IL-6 (lung) [16]: decrease | inhibition at 2.08 mg/kg ([17]; Homo sapiens, at or near Cmax, single 2.08 mg/kg IV): ~57% | time over which the inhibitory effect dissipated ([17]; after Cmax): 1 to 2 days | recovery of IL-2 production ([17]; after the end of the infusion): 24 h | decrease of IL-2 production ([17]; at the end of the infusion): > 50% | onset of action, IL-2 release inhibition ([17]; peak at the end of a 4-hour infusion): rapid onset of action | IC50 [18]: 303 nM
